{
  "source": "patent US20170318812A1",
  "about": "“Plant and Crop Growth Regulating/Biostimulant Formulations and Methods of Use” (Arysta Lifescience North America, LLC, priority 2014, published 2017)",
  "key": {"ZEAMX Zea mays (Corn)": {"tested_on": "ZEAMX Zea mays (Corn)", "assay": "Ipfencarbazone biostimulant effect, early post emergence foliar application, greenhouse pots, plant height: corn", "format": "in vivo", "settings": "ZEAMX AG7098PRO2", "source_text": "(§1) The original objective of this Example was to evaluate the herbicidal effect of ipfencarbazone when applied as a post emergent treatment to a range of selected crops and weeds. Unexpectedly, crop plant growth stimulation was observed. The actual species of weeds and crops are listed in the summary data tabulated below and in FIGS. 1-13. By convention each plant species has a Bayer code (5-letter name) with the scientific name for the plant referenced in FIGS. 1-13. In each Figure, each tray contains the same configuration of weeds and/or crops. In each Figure there is one replication of each treatment (six treatments in total). The top three photographs in each Figure show the Bayer Codes and bottom three photographs are aligned with the top three facilitating viewing of the same plant species. Throughout the Examples various abbreviations as conventional shorthand notation and will be appreciated by those skilled in the art. Some exemplary abbreviations include, “CV”=Co-efficient of Variation,” “LSD”=Least Significant Difference” (G/L (gram per L) AND GA/L (gram of active ingredient per L); “SC”=suspension concentrate formulation. The diluent in all treatments was water. By convention factors that are identical in all treatments (e.g. diluent and surfactant) are not listed in each treatment.\n(§2) Methods: The indicated size pots (see Tables below) are filled with a specific soil, the soil properties being indicated below. The referenced crops and weeds are planted by hand in each pot. […] The experiments include six treatments each replicated three times on each crop/weed species. At a specific time after emergence each crop and weed species was treated with ipfencarbazone plus a non-ionic surfactant (NIS). In the present Example, the surfactant employed was ENERGIC™ (non-ionic surfactant). The application timing is indicated in each of the Tables (1 or 2 leaf stage) below. Ipfencarbazone plus surfactant was diluted in water and applied at a rate equivalent to about 250 L/ha. Ipfencarbazone was applied using a track sprayer. After treatment, the pots were randomized in a greenhouse. At each assessment (indicated by “days after treatment” or DAT) the height of each plant was measured. The letters next to each mean indicate the level of statistical significance.\n(§3) Replications: 3, Untreated treatments: 1, Design: Randomized Complete Block (RCB), Treatment units: Treated ‘Plot’ experimental unit size, Dry Form. Unit: %, Treated ‘Plot’ experimental unit size Width: 1 meter, Treated ‘Plot’ experimental unit size Length: 1.4 meters, Application volume: 250 L/ha, Mix size: 0.15 liters, […]"}, "[1]": {"tested_on": "BRADC Brachiaria decumbens (Surinam grass)", "assay": "Ipfencarbazone biostimulant effect, early post emergence foliar application, greenhouse pots, plant height: Surinam grass", "format": "in vivo", "settings": "for HEIGHT, percent of untreated check (APoC) / HEIGHT, treatment mean: BRADC BASILISK; for Plant HEIGHT, Mean / Plant HEIGHT, single plots: Surinam grass BASILISK", "source_text": "as §1, §2, §3"}, "[2]": {"settings": "15 DA-A, 62.5 g ai/ha + Energic NIS 0.2 % v/v"}, "[3]": {"settings": "15 DA-A, 125 g ai/ha + Energic NIS 0.2 % v/v"}, "[4]": {"settings": "15 DA-A, 500 g ai/ha + Energic NIS 0.2 % v/v"}, "[5]": {"settings": "28 DA-A, 62.5 g ai/ha + Energic NIS 0.2 % v/v"}, "[6]": {"settings": "28 DA-A, 125 g ai/ha + Energic NIS 0.2 % v/v"}, "[7]": {"settings": "28 DA-A, 250 g ai/ha + Energic NIS 0.2 % v/v"}, "[8]": {"settings": "28 DA-A, 500 g ai/ha + Energic NIS 0.2 % v/v"}},
  "note": "Several values for one entry are separate records, joined by “and”; a condition that tells them apart may be missing. Equal values may be shown once.",
  "data": [
    {"smiles": "CC(C)N(C(=O)n1cnn(-c2ccc(Cl)cc2Cl)c1=O)c1ccc(F)cc1F", "note": "[ARY-0572-001, ipfencarbazone]", "values": [
      {"measurement": "HEIGHT, treatment mean", "setting": "ZEAMX Zea mays (Corn); 250 g ai/ha, 28 DA-A", "result": "106.0 a cm and 106.0 cm"},
      {"measurement": "HEIGHT, single plots (replicates)", "setting": "ZEAMX Zea mays (Corn); 250 g ai/ha, 28 DA-A, plots 104, 201, 306", "result": "108.3 cm and 104.0 cm and 105.7 cm"},
      {"measurement": "HEIGHT, percent of untreated check (APoC)", "setting": "ZEAMX Zea mays (Corn); 500 g ai/ha, 15 DA-A", "result": "(161.9%)"},
      {"measurement": "HEIGHT, treatment mean", "setting": "ZEAMX Zea mays (Corn); 500 g ai/ha, 15 DA-A", "result": "61.9 a cm and 61.9 cm"},
      {"measurement": "HEIGHT, single plots (replicates)", "setting": "ZEAMX Zea mays (Corn); 500 g ai/ha, 15 DA-A, plots 105, 202, 301", "result": "58.7 cm and 67.0 cm and 60.0 cm"},
      {"measurement": "HEIGHT, percent of untreated check (APoC)", "setting": "ZEAMX Zea mays (Corn); 500 g ai/ha, 28 DA-A", "result": "(205.9%)"},
      {"measurement": "HEIGHT, treatment mean", "setting": "ZEAMX Zea mays (Corn); 500 g ai/ha, 28 DA-A", "result": "104.8 a cm and 104.8 cm"},
      {"measurement": "HEIGHT, single plots (replicates)", "setting": "ZEAMX Zea mays (Corn); 500 g ai/ha, 28 DA-A, plots 105, 202, 301", "result": "101.7 cm and 107.7 cm and 105.0 cm"},
      {"measurement": "HEIGHT, percent of untreated check (APoC)", "setting": "ZEAMX Zea mays (Corn); 1000 g ai/ha, 15 DA-A", "result": "(98.3%)"},
      {"measurement": "HEIGHT, treatment mean", "setting": "ZEAMX Zea mays (Corn); 1000 g ai/ha, 15 DA-A", "result": "37.6 b cm and 37.6 cm"},
      {"measurement": "HEIGHT, single plots (replicates)", "setting": "ZEAMX Zea mays (Corn); 1000 g ai/ha, 15 DA-A, plots 106, 203, 304", "result": "48.7 cm and 34.7 cm and 29.3 cm"},
      {"measurement": "HEIGHT, percent of untreated check (APoC)", "setting": "ZEAMX Zea mays (Corn); 1000 g ai/ha, 28 DA-A", "result": "(117.9%)"},
      {"measurement": "HEIGHT, treatment mean", "setting": "ZEAMX Zea mays (Corn); 1000 g ai/ha, 28 DA-A", "result": "60.0 b cm and 60.0 cm"},
      {"measurement": "HEIGHT, single plots (replicates)", "setting": "ZEAMX Zea mays (Corn); 1000 g ai/ha, 28 DA-A, plots 106, 203, 304", "result": "91.7 cm and 44.0 cm and 44.3 cm"},
      {"measurement": "HEIGHT, percent of untreated check (APoC)", "setting": "[1]; 62.5 g ai/ha, 15 DA-A", "result": "(167.8%)"},
      {"measurement": "HEIGHT, treatment mean", "setting": "[1]; 62.5 g ai/ha, 15 DA-A", "result": 33.8, "unit": "a cm"},
      {"measurement": "HEIGHT, percent of untreated check (APoC)", "setting": "[1]; 62.5 g ai/ha, 28 DA-A", "result": "(164.1%)"},
      {"measurement": "HEIGHT, treatment mean", "setting": "[1]; 62.5 g ai/ha, 28 DA-A", "result": 55.4, "unit": "bc cm"},
      {"measurement": "HEIGHT, percent of untreated check (APoC)", "setting": "[1]; 125 g ai/ha, 15 DA-A", "result": "(139.1%)"},
      {"measurement": "HEIGHT, treatment mean", "setting": "[1]; 125 g ai/ha, 15 DA-A", "result": 28.1, "unit": "ab cm"},
      {"measurement": "HEIGHT, percent of untreated check (APoC)", "setting": "[1]; 125 g ai/ha, 28 DA-A", "result": "(146.7%)"},
      {"measurement": "HEIGHT, treatment mean", "setting": "[1]; 125 g ai/ha, 28 DA-A", "result": 49.6, "unit": "cd cm"},
      {"measurement": "HEIGHT, percent of untreated check (APoC)", "setting": "[1]; 250 g ai/ha, 15 DA-A", "result": "(141.3%)"},
      {"measurement": "HEIGHT, treatment mean", "setting": "[1]; 250 g ai/ha, 15 DA-A", "result": 28.5, "unit": "ab cm"},
      {"measurement": "HEIGHT, percent of untreated check (APoC)", "setting": "[1]; 250 g ai/ha, 28 DA-A", "result": "(233.6%)"},
      {"measurement": "HEIGHT, treatment mean", "setting": "[1]; 250 g ai/ha, 28 DA-A", "result": 78.9, "unit": "a cm"},
      {"measurement": "HEIGHT, percent of untreated check (APoC)", "setting": "[1]; 500 g ai/ha, 15 DA-A", "result": "(93.1%)"},
      {"measurement": "HEIGHT, treatment mean", "setting": "[1]; 500 g ai/ha, 15 DA-A", "result": 18.8, "unit": "bc cm"},
      {"measurement": "HEIGHT, percent of untreated check (APoC)", "setting": "[1]; 500 g ai/ha, 28 DA-A", "result": "(210.5%)"},
      {"measurement": "HEIGHT, treatment mean", "setting": "[1]; 500 g ai/ha, 28 DA-A", "result": 71.1, "unit": "ab cm"},
      {"measurement": "HEIGHT, percent of untreated check (APoC)", "setting": "[1]; 1000 g ai/ha, 15 DA-A", "result": "(54.0%)"},
      {"measurement": "HEIGHT, treatment mean", "setting": "[1]; 1000 g ai/ha, 15 DA-A", "result": 10.9, "unit": "c cm"},
      {"measurement": "HEIGHT, percent of untreated check (APoC)", "setting": "[1]; 1000 g ai/ha, 28 DA-A", "result": "(74.0%)"},
      {"measurement": "HEIGHT, treatment mean", "setting": "[1]; 1000 g ai/ha, 28 DA-A", "result": 25.0, "unit": "e cm"},
      {"measurement": "Plant HEIGHT, Mean", "setting": "[1]; [2]", "result": 33.8, "unit": "cm"},
      {"measurement": "Plant HEIGHT, single plots", "setting": "[1]; [2]", "result": "26.8 cm and 44.7 cm and 30.0 cm"},
      {"measurement": "Plant HEIGHT, Mean", "setting": "[1]; [3]", "result": 28.1, "unit": "cm"},
      {"measurement": "Plant HEIGHT, single plots", "setting": "[1]; [3]", "result": "27.8 cm and 23.7 cm and 32.7 cm"},
      {"measurement": "Plant HEIGHT, Mean", "setting": "[1]; 15 DA-A, 250 g ai/ha + Energic NIS 0.2 % v/v", "result": 28.5, "unit": "cm"},
      {"measurement": "Plant HEIGHT, Mean", "setting": "[1]; [4]", "result": 18.8, "unit": "cm"},
      {"measurement": "Plant HEIGHT, single plots", "setting": "[1]; [4]", "result": "21.3 cm and 13.7 cm"},
      {"measurement": "Plant HEIGHT, Mean", "setting": "[1]; 15 DA-A, 1000 g ai/ha + Energic NIS 0.2 % v/v", "result": 10.9, "unit": "cm"},
      {"measurement": "Plant HEIGHT, Mean", "setting": "[1]; [5]", "result": 55.4, "unit": "cm"},
      {"measurement": "Plant HEIGHT, single plots", "setting": "[1]; [5]", "result": "48.3 cm and 76.0 cm and 42.0 cm"},
      {"measurement": "Plant HEIGHT, Mean", "setting": "[1]; [6]", "result": 49.6, "unit": "cm"},
      {"measurement": "Plant HEIGHT, single plots", "setting": "[1]; [6]", "result": "53.0 cm and 44.7 cm and 51.0 cm"},
      {"measurement": "Plant HEIGHT, Mean", "setting": "[1]; [7]", "result": 78.9, "unit": "cm"},
      {"measurement": "Plant HEIGHT, single plots", "setting": "[1]; [7]", "result": "89.7 cm and 91.7 cm and 55.3 cm"},
      {"measurement": "Plant HEIGHT, Mean", "setting": "[1]; [8]", "result": 71.1, "unit": "cm"},
      {"measurement": "Plant HEIGHT, single plots", "setting": "[1]; [8]", "result": "67.3 cm and 77.0 cm and 69.0 cm"},
      {"measurement": "Plant HEIGHT, Mean", "setting": "[1]; 28 DA-A, 1000 g ai/ha + Energic NIS 0.2 % v/v", "result": 25.0, "unit": "cm"}
    ]}
  ]
}
